According to patent US7361665B2, “Inhibitors of c-Jun N-terminal kinases (JNK) and other protein kinases” (Vertex Pharmaceuticals Incorporated, priority 2002, dated 2008):

Key:
JNK3 = molecular target: T1, JNK3 (Homo sapiens, UniProt P53779); test: JNK inhibition assay (spectrophotometric coupled-enzyme assay); format: biochemical; conditions: activated JNK3 10 nM, 10 μM ATP, 30° C.; read-out: JNK3 Activity (Ki rating)
T1 construct: One such construct encodes amino acid residues Ser40-Glu402 of JNK3α1 and is preceded by Met and Gly residues; Met-Gly dipeptide (initiation Met plus Gly added for the NcoI site) (N); made in house; host or cells: E. coli BL21 (DE3)
Description: A BLAST search of the EST database using the published JNK3α1 cDNA as a query identified an EST clone (#632588) that contained the entire coding sequence for human JNK3α1. Polymerase chain reactions (PCR) using pfu polymerase (Strategene) were used to introduce restriction sites into the cDNA for cloning into the pET-15B expression vector at the NcoI and BamHI sites. The protein was expressed in E. coli. Due to the poor solubility of the expressed full-length protein (Met 1-Gln 422), an N-terminally truncated protein starting at Ser residue at position 40 (Ser 40) was produced. This truncation corresponds to Ser 2 of JNK1 and JNK2 proteins, and is preceded by a methionine (initiation) and a glycine residue. The glycine residue was added in order to introduce an NcoI site for cloning into the expression vector. In addition, systematic C-terminal truncations were performed by PCR to identify a construct that give rise to diffraction-quality crystals. One such construct encodes amino acid residues Ser40-Glu402 of JNK3α1 and is preceded by Met and Gly residues.
Five mg of JNK3 was diluted to 0.5 mg/ml in 50 mM HEPES buffer, pH 7.5, containing 100 mM NaCl, 5 mM DTT, 20 mM MgCl2 and 1 mM ATP. GST-MKK7(DD) was added at a molar ratio of 1:2.5 GST-MKK7:JNK3. After incubation for 30 minutes at 25° C., the reaction mixture was concentrated 5-fold by ultrafiltration in a Centriprep-30 (Amicon, Beverly, Mass.), diluted to 10 ml and an additional 1 mM ATP added. This procedure was repeated three times to remove ADP and replenish ATP. The final addition of ATP was 5 mM and the mixture incubated overnight at 4° C.
The activated JNK3/GST-MKK7(DD) reaction mixture was exchanged into 50 mM HEPES buffer, pH 7.5, containing 5 mM DTT and 5% glycerol (w/v) by dialysis or ultrafiltration. The reaction mixture was adjusted to 1.1 M potassium phosphate, pH 7.5, and purified by hydrophobic interaction chromatography (at 25° C.) using a Rainin Hydropore column. […] Activated JNK3 (i.e. doubly phosphorylated JNK3) was stored at −70° C. at 0.25-1 mg/ml.
Compounds were assayed for the inhibition of JNK3 by a spectrophotometric coupled-enzyme assay. In this assay, a fixed concentration of activated JNK3 (10 nM) was incubated with various concentrations of a potential inhibitor dissolved in DMSO for 10 minutes at 30° C. in a buffer containing 0.1 M HEPES buffer, pH 7.5, containing 10 mM MgCl2, 2.5 mM phosphoenolpyruvate, 200 μM NADH, 150 μg/mL pyruvate kinase, 50 μg/mL lactate dehydrogenase, and 200 μM EGF receptor peptide. The EGF receptor peptide has the sequence […] (SEQ ID NO: 3), and is a phosphoryl acceptor in the JNK3-catalyzed kinase reaction. The reaction was initiated by the addition of 10 μM ATP and the assay plate is inserted into the spectrophotometer's assay plate compartment that was maintained at 30° C. The decrease of absorbance at 340 nm was monitored as a function of time. The rate data as a function of inhibitor concentration was fitted to competitive inhibition kinetic model to determine the Ki.
The compound numbers correspond to the compound numbers in Tables 1-3.

human Lck kinase = test: Lck inhibition assay (radioactivity-based assay A or spectrophotometric assay B); format: biochemical
Experimental: The compounds of this invention can be evaluated as inhibitors of human Lck kinase using either a radioactivity-based assay or spectrophotometric assay.
The compounds are assayed as inhibitors of full length bovine thymus Lck kinase (from Upstate Biotechnology, cat. no. 14-106) expressed and purified from baculo viral cells. Lck kinase activity is monitored by following the incorporation of ^33P from ATP into the tyrosine of a random poly Glu-Tyr polymer substrate of composition, Glu:Tyr=4:1 (Sigma, cat. no. P-0275). The following are the final concentrations of the assay components: 0.025 M HEPES, pH 7.6, 10 mM MgCl2, 2 mM DTT, 0.25 mg/ml BSA, 10 μM ATP (1-2 μCi ^33P-ATP per reaction), 5 mg/ml poly Glu-Tyr, and 1-2 units of recombinant human […] kinase. In a typical assay, all the reaction components with the exception of ATP are pre-mixed and aliquoted into assay plate wells. […] The plates are sealed and the amount of radioactivity associated with the filters is quantified on a TopCount scintillation counter. The radioactivity incorporated is plotted as a function of the inhibitor concentration. […]
In a typical assay, all the reaction components with the exception of ATP are pre-mixed and aliquoted into assay plate wells. […] The absorbance change at 340 nm with time, the rate of the reaction, is monitored on a molecular devices plate reader. […]

T1 sequence (P53779 40-402): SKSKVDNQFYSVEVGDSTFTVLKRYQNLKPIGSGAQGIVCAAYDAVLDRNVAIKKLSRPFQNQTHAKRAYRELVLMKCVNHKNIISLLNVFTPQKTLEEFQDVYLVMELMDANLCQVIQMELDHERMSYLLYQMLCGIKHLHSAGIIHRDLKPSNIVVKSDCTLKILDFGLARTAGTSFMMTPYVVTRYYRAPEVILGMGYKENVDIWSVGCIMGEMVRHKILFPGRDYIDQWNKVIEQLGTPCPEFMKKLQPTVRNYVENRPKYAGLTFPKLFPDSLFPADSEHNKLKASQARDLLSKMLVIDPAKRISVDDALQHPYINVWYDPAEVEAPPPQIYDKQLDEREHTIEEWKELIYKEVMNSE

Cc1nc(-c2cccs2)sc1-c1ccnc(Nc2ccc(S(N)(=O)=O)cc2)n1 [IIc-22]
Ki (JNK3): < 100 nM
Ki (human Lck kinase): < 100 nM
